According to patent publication US9403747B2, “Methods and compositions for treating leukemia” (Golden Biotechnology Corporation, priority 2013, dated 2016):

Legend:
[1] = tested on: THP-1 xenograft; experiment: THP-1 leukemia xenograft model; type: in vivo, CB.17 SCID mice; conditions: 120 mg/kg PO twice per day, 5 days per week, 4 weeks
Procedure: Six to seven weeks old male CB.17 SCID mice were purchased from BioLasco Taiwan Co., LTD. and quarantined for one week. During experiment period, 5 mice will be housed in one cage. All animals will be hosted in the Da-Hu animal facility in a 12-h light/12-h dark cycle at 19-25° C. Animals have free access to rodent pellet food and water ad libitum. The experimental protocol of animal study was reviewed and approved by the Institutional Animal Care and Use Committee, DCB. Compound 1 was diluted in olive oil to final concentrations of 12 mg/mL.
Tumor cell line: THP-1 cells (leukemia) were cultured in RPMI-1640 medium or DMEM medium which supplemented with 10% heat inactivated fetal bovine serum. The cells were cultured in tissue culture flasks in a humidified incubator at 37° C., in an atmosphere of 5% CO2 and 95% air.
The human cancer cells used for implantation were harvested during log phase growth and resuspended in phosphate buffered saline to a concentration containing 2×10^7 cells/mL of THP-1, in 0.1 mL of a 50% Matrigel solution (BD Biosciences, MA, USA). […] Volume was calculated using the formula: Tumor Volume=(w^2×l)/2 where w=width and l=length in diameter (mm) of the tumor. […]
Tumors were measured twice per week using calipers. […] The body weight change was calculated as the percentage increase in body weight compared to the initial body weight. […]

[2] = tested on: H838; experiment: CCK-8 cell viability assay, H838; type: cell-based; conditions: Homo sapiens, NCI-H838, 48 h, 48 h treatment; means ± S.E.M.
Procedure: Human hepatoma (HepG2, Hep3B), human lung adenocarcinoma (A549, H838), and human myelogenous leukemia (K562) cell lines were obtained from American Type Culture Collection (Rockville, Md., USA). Human prostate cancer cell lines (LNCaP and DU145), human breast carcinoma (MCF-7), human bladder carcinoma (TSGH 8301) and human pancreas adenocarcinoma (BxPC-3) were obtained from BCRC (Bioresource Collection and Research Center, Hsinchu, Taiwan). HepG2, DU145 and MCF-7 cell lines were cultured in Minimum Essential Medium Alpha (Invitrogen/Gibco BRL, Grand Island, N.Y., USA). A549 cells were cultured in Dulbecco's modified Eagle's medium (Invitrogen/Gibco BRL). […]
Cell viability was measured using Cell Counting Kit-8 (CCK-8, Enzo Life Sciences, Farmingdale, N.Y.). […] The concentration of formazan was measured with a spectrophotometer at an absorbance wavelength of 450 nm. Cell viability was expressed as a percentage of the corresponding control.
To determine whether the cytotoxic effects of Compound 1 correlate with the presence of Ras mutations, cell lines derived from human lung cancer (A549 and H838), liver cancer (HepG2 and Hep3B), and leukemia (K562 and THP-1) with wild-type Ras (H838, Hep3B, and K562) or mutant Ras (A549, HepG2, and THP-1) were used. Cell viability was measured after 48 h of Compound 1 treatment.

[3] = tested on: Ras; experiment: Immunoblot of unprocessed and processed Ras in cancer cell lines; type: cell-based, human; conditions: H838 cells, 24 h
Procedure: FIG. 2A-C show illustrative effective results of the exemplary Compound 1 inhibiting Ras processing in cancer cell lines. (2A) A549 and H838 cells were treated with different concentrations of Compound 1 and grown under serum (10% FBS) or serum-free (no FBS) conditions for 24 h. (2B) H838, (2C) HepG2 and K562 cells were treated with different concentrations of Compound 1 and grown under serum-free (no FBS) conditions for 24 h. Whole cell lysates were then immunoblotted with a Ras antibody. A duplicate membrane was probed with a GAPDH antibody. The relative expression level of unprocessed to processed Ras was quantified by densitometry. The experiments were conducted three times. […]
FIG. 3A-C show illustrative effective results of Compound 1 inhibiting the prenylation activity of farnesyltransferase in vitro and competes with FPP within cells. […] The relative expression level of unprocessed to processed Ras was quantified by densitometry. […]
Sixty micrograms of total protein lysates measured using a Bradford assay (Sigma-Aldrich, St. Louis, Mo., USA) were resolved on 12.5% SDS-polyacrylamide gels. […] Secondary antibodies were conjugated to horseradish peroxidase, which was detected using a 3,3′-diaminobenzidine substrate kit (Vector Laboratories, Burlingame, Calif.). The immunoreactive bands were quantified by densitometry using Image-Pro Plus software (Media Cybernetics, Silver Spring, Md.). […]

## COC1=C(OC)C(O)C(C/C=C(\C)CC/C=C(\C)CCC=C(C)C)C(C)C1=O (stereo not shown) [Compound 1, 4-hydroxy-2,3-dimethoxy-6-methyl-5-(3,7,11-trimethyldodeca-2,6,10-trienyl)cyclohex-2-enone]
[1]
  body weight: almost no body weight changes

## COC1=C(OC)C(=O)C(C/C=C(\C)CC/C=C(\C)CCC=C(C)C)=C(C)C1=O [Compound 25, 2,3-dimethoxy-5-methyl-6-((2E,6E)-3,7,11-trimethyldodeca-2,6,10-trienyl)cyclohexa-2,5-diene-1,4-dione]
[2]
  IC50: 22.6 ± 6.45 µM

## CC(C)=CCC/C(C)=C/CC/C(C)=C/COP(=O)(O)OP(=O)(O)O [FPP]
[3]
  Ras processing, agent alone: potentiated Ras processing
[3]; competition assay
  FPP concentration neutralizing the effect of Compound 1 on Ras processing: ≥ 10 µM
